Assays:
CT26 cells = test: Phagocytosis assay: uptake of treated tumor cells by dendritic cells; assay type: cell-based, mouse; conditions: before apoptotic changes
Experimental: BM cells were flushed from the tibias and femurs of BALB/c mice with culture medium composed of RPMA 1640 medium supplemented with 10% heat-inactivated FBS, sodium pyruvate, […] 2-ME. 10 mM HEPES (pH 7.4), and penicillin/streptomycin. After one centrifugation, BM cells were resuspended in Tris-ammonium chloride for 2 min to lyse RBC. After one more centrifugation, BM cells (1×10^6 cells/ml) were cultured in medium supplemented with 100 ng/ml recombinant mouse FLT3 ligand in 6-well plates. […] In 12-well plates, […] adherent CT26 cells were labeled with Celltracker Orange and then incubated with drugs. […] Alternatively CT26 cells were coated with 3 μg/10^6 cells of rCRT on ice for 30 minutes and washed twice prior to addition to dendritic cells. Cells were then harvested, washed three times with medium supplemented with FBS and cocultured with immature DC for 2 hours at a ratio of 1:1 and 1:5. At the end of the incubation, cells were harvested with Versene, pooled with non-adherent cells present in the supernatant, washed and stained with CD11c-FITC antibody. Phagocytosis was assessed by FACS analysis of double positive cells. Phagocytic indexes refer to the ratio between values obtained at […] of co-incubation between DC and tumor cells. Trypsinized CT26 cells were enucleated as described. Briefly, cells were treated in 2 ml of complete RPMI medium containing cytochalasin B (10 μg/ml; Sigma) and DNase I (80 U/ml; Sigma). Cell suspension was adjusted to a final concentration of 5×10^6/ml and incubated at 37° C. for 45 minutes before being layered onto a previously prepared discontinuous Ficoll density gradient (3 ml of 100%, in 1 ml of 90% and 3 ml of 55% Ficoll Paque layer containing 5 μg/ml cytochalasin B and 40 U/ml DNase I; gradients were prepared in ultracentrifuge tubes and pre-equilibrated at 37° C. in a CO2 incubator overnight). Gradients containing cell suspensions were centrifugated in a prewarmed SW41 Beckman rotor at 25 000 rpm for 20 minutes at 30° C. The cytoplasts-enriched fraction was collected from the interface between 90 and 100% Ficoll layers, washed in complete RPMI 1640 medium, and incubated at 37° C. The cells were incubated with mitoxantrone (MTX), calyculin (CA), salubrinal (Sal) and toutomycin (TA) for the period of time indicated in the experiment. […] Alternatively cythoplasts were cocultured with immature DC for 2 hours at a ratio of 1:1 and 1:5. At the end of the incubation, cells were harvested with versene, pooled with non-adherent cells present in the supernatant, washed and stained with CD11c-FITC antibody. Phagocytosis was assessed by FACS analysis of double positive cells.

ERP57 = test: Biotinylation of cell surface proteins, 2D gel electrophoresis and mass spectrometry: ERP57; assay type: cell-based, mouse; conditions: 4 h treatment, vs untreated cells
Experimental: Biotinylation and recovery of cell surface proteins were performed with a method adopted from Gottardi et al. (Gottardi, C. J. et al., “Biotinylation and assessment of membrane polarity: caveats and methodological concerns,” Am J Physiol 268, F285-295 (1995)) and Hanwell et al. (Hanwell, D. et al., “Trafficking and cell surface stability of the epithelial Na+ channel expressed in epithelial Madin-Darby canine kidney cells,” J Biol Chem 277, 9772-9779 (2002)). Briefly, 20×10^6 CT26 cells grown on 75 cm^2 flask were placed on ice and washed three times with ice-cold PBS-Ca^2+—Mg^2+ (PBS with 0.1 mM CaCl2 and 1 mM MgCl2). Membrane proteins were then biotinylated by a 30-minute incubation at 4° C. with NHS-SS-biotin 1.25 mg/ml freshly diluted into biotinylation buffer (10 mM triethanolamine, 2 mM CaCl2, 150 mM NaCl, pH 7.5) with gentle agitation. CT26 cells were rinsed with PBS-Ca^2+—Mg^2++glycine (100 mM) and washed in this buffer for 20 minutes at 4° C. to quench unreacted biotin. The cells were then rinsed twice with PBS-Ca^2+—Mg^2+, scraped in cold PBS, and pelleted at 2,000 rpm at 4° C. The pellets were solubilized for 45 min in […] of lysis buffer (1% Triton X-100, 150 mM NaCl, 5 mM EDTA, 50 mM Tris, pH 7.5) containing protease inhibitors. The lysates were clarified by centrifugation at 14,000×g for 10 min at 4° C., and the supernatants were incubated overnight with packed streptavidin-agarose beads to recover biotinylated proteins. The beads were then pelleted by centrifugation, and aliquots of supernatants were taken to represent the unbound, intracellular pool of proteins. Biotinylated proteins were eluted from the beads by heating to 100° C. for 5 minutes in SDS-PAGE sample buffer before loading onto a 10% SDS-PAGE gel as described above. To ensure the absence of leakage of biotin into the cells, the absence of the intracellular protein actin and GAPDH in biotinylated extracts was systematically verified.
Purified proteins were precipitated using the Ettan 2-D clean up kit were subsequently resuspended in urea buffer (7M urea, 2M thiourea, 2% Chaps, 1% Sulfobetaine SB3-10, 1% Amidosulfobetaine ASB14, 50 mM DTT). For the first dimension of protein separation, isoelectric focusing (IEF) was performed using 18-cm immobilized nonlinear pH gradient strips (pH 3 to 10; GE Healthcare) on a electrophoresis unit. […]

CRT [1] = test: Biotinylation of cell surface proteins, 2D gel electrophoresis and mass spectrometry: CRT; assay type: cell-based, mouse; conditions: 4 h treatment, vs untreated cells
Experimental: Biotinylation and recovery of cell surface proteins were performed with a method adopted from Gottardi et al. (Gottardi, C. J. et al., “Biotinylation and assessment of membrane polarity: caveats and methodological concerns,” Am J Physiol 268, F285-295 (1995)) and Hanwell et al. (Hanwell, D. et al., “Trafficking and cell surface stability of the epithelial Na+ channel expressed in epithelial Madin-Darby canine kidney cells,” J Biol Chem 277, 9772-9779 (2002)). Briefly, 20×10^6 CT26 cells grown on 75 cm^2 flask were placed on ice and washed three times with ice-cold PBS-Ca^2+—Mg^2+ (PBS with 0.1 mM CaCl2 and 1 mM MgCl2). Membrane proteins were then biotinylated by a 30-minute incubation at 4° C. with NHS-SS-biotin 1.25 mg/ml freshly diluted into biotinylation buffer (10 mM triethanolamine, 2 mM CaCl2, 150 mM NaCl, pH 7.5) with gentle agitation. CT26 cells were rinsed with PBS-Ca^2+—Mg^2++glycine (100 mM) and washed in this buffer for 20 minutes at 4° C. to quench unreacted biotin. The cells were then rinsed twice with PBS-Ca^2+—Mg^2+, scraped in cold PBS, and pelleted at 2,000 rpm at 4° C. The pellets were solubilized for 45 min in […] of lysis buffer (1% Triton X-100, 150 mM NaCl, 5 mM EDTA, 50 mM Tris, pH 7.5) containing protease inhibitors. […]

CT26 tumor cells = test: Anti-tumor vaccination: treated dying CT26 cells injected s.c., challenge with live tumor cells in opposite flank; assay type: in vivo, BALB/c mice; conditions: CT26 cells treated in vitro with agent alone, immunocompetent BALB/c mice
CRT [2] = test: Fluorescence detection of cell surface CRT (cytofluorometry); conditions: intact cells
Experimental: CT26 cells (on a glass slide or in 12-well plates) were first washed with FACS buffer (1×PBS, 5% fetus bovine serum, and 0.1% sodium azide) and then incubated with rabbit anti-mouse CRT antibody (1:100, Stressgen), or rabbit anti-mouse ERP57 antibody (abcam) in FACS buffer at 4° C. for 30 min. […] After washing three times with FACS buffer, surface CRT and ERP57 was detected by cytofluorometric analysis on a FACS Vantage. In some experiments, cells were fixed with 4% paraformaldehyde, counterstained with Hoechst (2 μM; Sigma), followed by fluorescence microscopic assessment.
Trypsinized CT26 cells were enucleated as described. Briefly, cells were treated in 2 ml of complete RPMI medium containing cytochalasin B (10 μg/ml; Sigma) and DNase I (80 U/ml; Sigma). […] Gradients containing cell suspensions were centrifugated in a prewarmed SW41 Beckman rotor at 25 000 rpm for 20 minutes at 30° C. […] Then the cell surface CRT was detected (see materials and methods) and the viability was determined by with propidium iodine staining (2 μg/ml, Sigma) for 5 min followed by cytofluorometric analysis.

Q: How did the “time after treatment at which tumor cells are phagocytosed by DC” value (CT26 cells) turn out when `COc1cccc2c1C(=O)c1c(O)c3c(c(O)c1C2=O)C[C@@](O)(C(=O)CO)C[C@@H]3O[C@H]1C[C@H](N)[C@H](O)[C@H](C)O1` [doxorubicin] was run?
A: Its value is “within a few hours after treatment”.

Q: What about the “induction of surface ERP57 spot 1, factor” value (ERP57) of the same compound?
A: The value was 4.1.

Q: And the “induction of surface ERP57 spot 2, factor” value (ERP57)?
A: Its value is 3.4.

Q: And the “induction of surface ERP57 spot 3, factor” value (ERP57)?
A: Its value is 8.

Q: And the “induction of surface ERP57 spot 4, factor” value (ERP57)?
A: Its value is 8.1.

Q: And the “induction of surface CRT, factor” value (CRT [1])?
A: Its value is 6.

Q: And the “immunogenicity of cell death (protection against tumor growth on rechallenge)” value (CT26 tumor cells)?
A: The value was “elicited immunogenic cell death”.

Q: And the “time after treatment at which CRT exposure is detectable” value (CRT [2])?
A: The value was 1 h.

Source: patent US20090004211A1, “METHOD FOR EFFECTING LOCALIZED, NON-SYSTEMIC AND SYSTEMIC, IMMUNOGENIC TREATMENT OF CANCER USING ERP57 TRANSLOCATION” (priority 2006, published 2009)
